Columns and labels:
Assay in all cases: relative viability (nuclei count vs DMSO), 5 days (fraction); higher = more cells survive
NCI-H1651 = system: NCI-H1651
Procedure, shortened: (§1)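 Lung cancer cell lines, seeded in 1536-well plates, were treated the following day by pin tool with a single drug or with five library-drug doses (not always all listed) in √10 steps on top of a fixed anchor-drug dose. Cells were fixed and nuclei stained in one step after 5 days, and nuclei were counted. Relative viability is the nuclei count for treated wells divided by that for vehicle wells, reported as medians of duplicate plates.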

SK-MES-1 = system: SK-MES-1
Procedure, shortened: as §1

NCI-H1395 = system: NCI-H1395
Procedure, shortened: as §1

LC-2-ad = system: LC-2-ad
Procedure, shortened: as §1

PC-3 [JPC-3] = system: PC-3 [JPC-3]
Procedure, shortened: as §1

NCI-H2342 = system: NCI-H2342
Procedure, shortened: as §1

NCI-H1755 = system: NCI-H1755
Procedure, shortened: as §1

NCI-H2228 = system: NCI-H2228
Procedure, shortened: as §1

NCI-H1793 = system: NCI-H1793
Procedure, shortened: as §1

NCI-H1437 = system: NCI-H1437
Procedure, shortened: as §1

EMC-BAC-2 = system: EMC-BAC-2
Procedure, shortened: as §1

NCI-H2347 = system: NCI-H2347
Procedure, shortened: as §1

EKVX = system: EKVX
Procedure, shortened: as §1

NCI-H1944 = system: NCI-H1944
Procedure, shortened: as §1

NCI-H1915 = system: NCI-H1915
Procedure, shortened: as §1

NCI-H2087 = system: NCI-H2087
Procedure, shortened: as §1

LK-2 = system: LK-2
Procedure, shortened: as §1

CAL-12T = system: CAL-12T
Procedure, shortened: as §1

LXF-289 = system: LXF-289
Procedure, shortened: as §1

NCI-H661 = system: NCI-H661
Procedure, shortened: as §1

NCI-H2085 = system: NCI-H2085
Procedure, shortened: as §1

SK-LU-1 = system: SK-LU-1
Procedure, shortened: as §1

COR-L 105 = system: COR-L 105
Procedure, shortened: as §1

H3255 = system: H3255
Procedure, shortened: as §1

NCI-H522 = system: NCI-H522
Procedure, shortened: as §1

`CCCCCCCCCCCC1=C(O)C(=O)C=C(O)C1=O` [Embelin] + Cc1nc(Nc2ncc(C(=O)Nc3c(C)cccc3Cl)s2)cc(N2CCN(CCO)CC2)n1 [Dasatinib] (partner 0.075 µM) gave a relative viability (NCI-H1651; first compound 0.08 µM) of 0.388, a relative viability (NCI-H1651; first compound 0.8 µM) of 0.508 and a relative viability (NCI-H1651; first compound 2.53 µM) of 0.438. For the same compound, the relative viability (NCI-H1651; first compound 8 µM) was 0.335, the relative viability (SK-MES-1; first compound 0.08 µM) was 0.372 and the relative viability (SK-MES-1; first compound 0.8 µM) was 0.466. It also gave a relative viability (SK-MES-1; first compound 2.53 µM) of 0.321, a relative viability (SK-MES-1; first compound 8 µM) of 0.361 and a relative viability (NCI-H1395; first compound 0.08 µM) of 0.393. It also gave a relative viability (NCI-H1395; first compound 0.8 µM) of 0.484, a relative viability (NCI-H1395; first compound 2.53 µM) of 0.404 and a relative viability (NCI-H1395; first compound 8 µM) of 0.352. It also gave a relative viability (LC-2-ad; first compound 0.08 µM) of 0.596, a relative viability (LC-2-ad; first compound 0.8 µM) of 0.837 and a relative viability (LC-2-ad; first compound 2.53 µM) of 0.823. The relative viability (LC-2-ad; first compound 8 µM) was 0.412, the relative viability (PC-3 [JPC-3]; first compound 0.08 µM) was 1.02 and the relative viability (PC-3 [JPC-3]; first compound 0.8 µM) was 1.05. The relative viability (PC-3 [JPC-3]; first compound 2.53 µM) was 1.12, the relative viability (PC-3 [JPC-3]; first compound 8 µM) was 0.966 and the relative viability (NCI-H2342; first compound 0.08 µM) was 0.288. It also gave a relative viability (NCI-H2342; first compound 0.8 µM) of 0.346, a relative viability (NCI-H2342; first compound 2.53 µM) of 0.326 and a relative viability (NCI-H2342; first compound 8 µM) of 0.342. It also gave a relative viability (NCI-H1755; first compound 0.08 µM) of 0.368, a relative viability (NCI-H1755; first compound 0.8 µM) of 0.49 and a relative viability (NCI-H1755; first compound 2.53 µM) of 0.379. It also gave a relative viability (NCI-H1755; first compound 8 µM) of 0.407, a relative viability (NCI-H2228; first compound 0.08 µM) of 0.503 and a relative viability (NCI-H2228; first compound 0.8 µM) of 0.618. The relative viability (NCI-H2228; first compound 2.53 µM) was 0.592, the relative viability (NCI-H2228; first compound 8 µM) was 0.396 and the relative viability (NCI-H1793; first compound 0.08 µM) was 0.397. For the same compound, the relative viability (NCI-H1793; first compound 0.8 µM) was 0.432, the relative viability (NCI-H1793; first compound 2.53 µM) was 0.446 and the relative viability (NCI-H1793; first compound 8 µM) was 0.334. It also gave a relative viability (NCI-H1437; first compound 0.08 µM) of 0.407, a relative viability (NCI-H1437; first compound 0.8 µM) of 0.459 and a relative viability (NCI-H1437; first compound 2.53 µM) of 0.337. It also gave a relative viability (NCI-H1437; first compound 8 µM) of 0.275, a relative viability (EMC-BAC-2; first compound 0.08 µM) of 0.304 and a relative viability (EMC-BAC-2; first compound 0.8 µM) of 0.46. The relative viability (EMC-BAC-2; first compound 2.53 µM) was 0.341, the relative viability (EMC-BAC-2; first compound 8 µM) was 0.291 and the relative viability (NCI-H2347; first compound 0.08 µM) was 0.332. It also gave a relative viability (NCI-H2347; first compound 0.8 µM) of 0.33, a relative viability (NCI-H2347; first compound 2.53 µM) of 0.296 and a relative viability (NCI-H2347; first compound 8 µM) of 0.309. For the same compound, the relative viability (EKVX; first compound 0.08 µM) was 0.564, the relative viability (EKVX; first compound 0.8 µM) was 0.724 and the relative viability (EKVX; first compound 2.53 µM) was 0.576. For the same compound, the relative viability (EKVX; first compound 8 µM) was 0.555, the relative viability (NCI-H1944; first compound 0.08 µM) was 0.2 and the relative viability (NCI-H1944; first compound 0.8 µM) was 0.221. For the same compound, the relative viability (NCI-H1944; first compound 2.53 µM) was 0.245, the relative viability (NCI-H1944; first compound 8 µM) was 0.195 and the relative viability (NCI-H1915; first compound 0.08 µM) was 0.309. It also gave a relative viability (NCI-H1915; first compound 0.8 µM) of 0.361, a relative viability (NCI-H1915; first compound 2.53 µM) of 0.321 and a relative viability (NCI-H1915; first compound 8 µM) of 0.335. The relative viability (NCI-H2087; first compound 0.08 µM) was 0.877, the relative viability (NCI-H2087; first compound 0.8 µM) was 1.19 and the relative viability (NCI-H2087; first compound 2.53 µM) was 1.06. For the same compound, the relative viability (NCI-H2087; first compound 8 µM) was 0.913, the relative viability (LK-2; first compound 0.08 µM) was 0.26 and the relative viability (LK-2; first compound 0.8 µM) was 0.427. For the same compound, the relative viability (LK-2; first compound 2.53 µM) was 0.304, the relative viability (LK-2; first compound 8 µM) was 0.237 and the relative viability (CAL-12T; first compound 0.08 µM) was 0.414. The relative viability (CAL-12T; first compound 0.8 µM) was 0.522, the relative viability (CAL-12T; first compound 2.53 µM) was 0.481 and the relative viability (CAL-12T; first compound 8 µM) was 0.539. The relative viability (LXF-289; first compound 0.08 µM) was 0.212, the relative viability (LXF-289; first compound 0.8 µM) was 0.282 and the relative viability (LXF-289; first compound 2.53 µM) was 0.163. The relative viability (LXF-289; first compound 8 µM) was 0.222, the relative viability (NCI-H661; first compound 0.08 µM) was 0.852 and the relative viability (NCI-H661; first compound 0.8 µM) was 1.08. It also gave a relative viability (NCI-H661; first compound 2.53 µM) of 0.99, a relative viability (NCI-H661; first compound 8 µM) of 0.703 and a relative viability (NCI-H2085; first compound 0.08 µM) of 0.253. It also gave a relative viability (NCI-H2085; first compound 0.8 µM) of 0.246, a relative viability (NCI-H2085; first compound 2.53 µM) of 0.227 and a relative viability (NCI-H2085; first compound 8 µM) of 0.209. It also gave a relative viability (SK-LU-1; first compound 0.08 µM) of 0.192, a relative viability (SK-LU-1; first compound 0.8 µM) of 0.191 and a relative viability (SK-LU-1; first compound 2.53 µM) of 0.199. For the same compound, the relative viability (SK-LU-1; first compound 8 µM) was 0.138, the relative viability (COR-L 105; first compound 0.08 µM) was 0.339 and the relative viability (COR-L 105; first compound 0.8 µM) was 0.544. The relative viability (COR-L 105; first compound 2.53 µM) was 0.355, the relative viability (COR-L 105; first compound 8 µM) was 0.33 and the relative viability (H3255; first compound 0.08 µM) was 0.355. It also gave a relative viability (H3255; first compound 0.8 µM) of 0.378, a relative viability (H3255; first compound 2.53 µM) of 0.298 and a relative viability (H3255; first compound 8 µM) of 0.456. For the same compound, the relative viability (NCI-H522; first compound 0.08 µM) was 0.849, the relative viability (NCI-H522; first compound 0.8 µM) was 0.914 and the relative viability (NCI-H522; first compound 2.53 µM) was 1.02. For the same compound, the relative viability (NCI-H522; first compound 8 µM) was 0.859.

From the supplement of paper PMC10307832
